Experiment [1] deals with vasopressin V1 receptor (rat liver plasma membranes) (Rattus norvegicus, UniProt P30560). The experiment can be described thus: Binding Assay to Rat Hepatic V1 Receptors. As to conditions: for IC50: rat hepatic V1. On the procedure: Rat liver plasma membranes expressing the vasopressin V1 receptor subtypes are isolated by sucrose density gradient according to the method described by Lesko et al., (1973). These membranes are quickly suspended in 50.0 mM Tris.HCl buffer, pH 7.4, containing 0.2% bovine serum albumin (BSA) and 0.1 mM phenylmethylsulfonylfluoride (PMSF) and kept frozen at -70° C. until used in subsequent binding experiments. For binding experiments, the following is added to the wells of a ninety-six well format microtiter plate: 100 μl of 100.0 mM Tris.HCl buffer containing 10.0 mM MgCl2, 0.2% heat inactivated BSA and a mixture of protease inhibitors: leupeptin, 1.0 mg %; aprotinin, 1.0 mg %; 1,10-phenanthroline,2.0 mg %; trypsin inhibitor, 10.0 mg % and 0.1 mM PMSF, 20.0 μl of [phenylalanyl-3,4,5,-^3 H] vasopressin (S.A. 45.1 Ci/mmole) at 0.8 nM, and the reaction initiated by the addition of 80 μl of tissue membranes containing 20 μg of tissue protein. The plates are kept undisturbed on the bench top at room temperature for 120 min. to reach equilibrium. Non-specific samples are assayed in the presence of 0.1 μM of the unlabeled antagonist phenylalanylvasopressin, added in 20.0 μl volume.
For test compounds, these are solubilized in 50% dimethylsulfoxide (DMSO) and added in 20.0 μl volume to a final incubation volume of 200 μl. Upon completion of binding, the content of each well is filtered off, using a Brandel® cell Harvester (Gaithersburg, Md.). The radioactivity trapped on the filter disk by the ligand-receptor complex is assessed by liquid scintillation counting in a Packard LS Counter, with an efficiency of 65% for tritium.

Experiment [2] deals with T1, rat kidney medullary V2 receptors (Rattus norvegicus, UniProt Q00788).
T1 construct: Medullary tissues from rat kidneys are dissected out; from tissue; host or cells: rat kidney medulla membranes
The experiment can be described thus: Binding Assay to Rat Kidney Medullary V2 Receptors. To be noted: for IC50: rat kidney medullary V2. Here is the method: Medullary tissues from rat kidneys are dissected out, cut into small pieces and soaked in a […] sodium chloride solution containing 1.0 mM EDTA with many changes of the liquid phase, until the solution is clear of blood. The tissue is homogenized in a 0.25M sucrose solution containing 1.0 mM EDTA and 0.1 mM PMSF using a Potter-Elvehjem homogenizer with a teflon pestle. The homogenate is filtered through several layers (4 layers) of cheese cloth. The filtrate is rehomogenized using a dounce homogenizer, with a tight fitting pestle. The final homogenate is centrifuged at 1500×g for 15 min. The nuclear pellet is discarded and the supernatant fluid recentrifuged at 40,000×g for 30 min. The resulting pellet formed contains a dark inner part with the exterior, slightly pink. The pink outer part is suspended in a small amount of 50.0 mM Tris.HCl buffer, pH 7.4. The protein content is determined by the Lowry's method (Lowry et al., J. Biol. Chem., 1953). The membrane suspension is stored at -70° C., in 50.0 mM Tris.HCl, containing 0.2% inactivated BSA and 0.1 mM PMSF in aliquots of 1.0 ml containing 10.0 mg protein per ml of suspension until use in subsequent binding experiments.
For binding experiments, the following is added in μl volume to wells of a 96 well format of a microtiter plate: 100.0 μl of 100.0 mM Tris.HCl buffer containing 0.2% heat inactivated BSA, 10.0 mM MgCl2 and a mixture of protease inhibitors: leupeptin, 1.0 mg %; aprotinin, 1.0 mg %; 1,10-phenanthroline, 2.0 mg %; trypsin inhibitor, 10.0 mg % and 0.1 mM PMSF, 20.0 μl of [^3 H] Arginine^8, vasopressin (S.A. 75.0 Ci/mmole) at 0.8 nM and the reaction initiated by the addition of 80.0 μl of tissue membranes (200.0 μg tissue protein). The plates are left undisturbed on the bench top for 120 min to reach equilibrium. Non-specific binding is assessed in the presence of 1.0 μM of unlabeled ligand, added in 20 μl volume. For test compounds, these are solubilized in 50% dimethylsulfoxide (DMSO) and added in 20.0 μl volume to a final incubation volume of 200 μl. Upon completion of binding, the content of each well is filtered off, using a Brandel® cell Harvester (Gaithersburg, Md.). The radioactivity trapped on the filter disk by the ligand-receptor complex is assessed by liquid scintillation counting in a Packard LS Counter, with an efficiency of 65% for tritium.

For another experiment, the system named is vasopressin V1. Nature of the experiment: Vasopressin V1 Antagonist Activity in Conscious Rats (vasopressin vasopressor response). It is filed as in vivo, rat (spontaneously hypertensive rats). To be noted: 10 mg/kg i.v. Here is the method:
Conscious rats are restrained in a supine position with elastic tape. The area at the base of the tail is locally anesthetized by subcutaneous infiltration with 2% procaine (0.2 ml). Using aseptic technique the ventral caudal tail artery is isolated and a cannula made of PE 10 and 20 (heat-fused) tubing is passed into the lower abdominal aorta. The cannula is secured, heparinized (1000 i.u./cc), sealed and the wound closed with one or two stitches of Dexon 4-0. The caudal vein is also cannulated in the same manner for intravenous drug administration. The duration of the surgery is approximately 5 minutes. Additional local anesthesia (2% procaine or lidocaine) is provided as needed.
The animals are placed in plastic restraining cages in an upright position. The cannula is attached to a Statham P23Db pressure transducer and pulsatile blood pressure is recorded. […] The vasopressin injections are repeated 30, 60, 90, 120, 180, 240 and 300 min. later. Percentage of antagonism by the compound is calculated using the pre-drug vasopressin vasopressor response as 100%.

Where [3] appears, read: 2 h, rat hepatic, read-out: V1, % at concentration in brackets.
Setting [4] is: rat kidney, read-out: V2, % at concentration in brackets.

Experimental findings from patent US5834461A, “Tricyclic benzazepine vasopressin antagonists” (American Cyanamid Company, priority 1997, dated 1998) are described below.

Sequence of vasopressin V1 receptor (rat liver plasma membranes) (P30560 whole entry): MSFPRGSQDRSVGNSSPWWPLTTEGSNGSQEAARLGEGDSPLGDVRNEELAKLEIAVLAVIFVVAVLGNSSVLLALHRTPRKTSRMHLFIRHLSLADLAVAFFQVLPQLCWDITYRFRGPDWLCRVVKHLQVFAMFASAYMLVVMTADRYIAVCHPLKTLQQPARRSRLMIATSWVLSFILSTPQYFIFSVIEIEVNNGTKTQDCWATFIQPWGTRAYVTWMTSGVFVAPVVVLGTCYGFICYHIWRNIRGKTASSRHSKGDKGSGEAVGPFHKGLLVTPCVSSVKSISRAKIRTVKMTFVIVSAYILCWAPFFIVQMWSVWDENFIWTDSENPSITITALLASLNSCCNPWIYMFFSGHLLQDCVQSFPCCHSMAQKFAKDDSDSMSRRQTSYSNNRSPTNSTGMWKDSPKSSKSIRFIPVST
T1 sequence (Q00788 whole entry): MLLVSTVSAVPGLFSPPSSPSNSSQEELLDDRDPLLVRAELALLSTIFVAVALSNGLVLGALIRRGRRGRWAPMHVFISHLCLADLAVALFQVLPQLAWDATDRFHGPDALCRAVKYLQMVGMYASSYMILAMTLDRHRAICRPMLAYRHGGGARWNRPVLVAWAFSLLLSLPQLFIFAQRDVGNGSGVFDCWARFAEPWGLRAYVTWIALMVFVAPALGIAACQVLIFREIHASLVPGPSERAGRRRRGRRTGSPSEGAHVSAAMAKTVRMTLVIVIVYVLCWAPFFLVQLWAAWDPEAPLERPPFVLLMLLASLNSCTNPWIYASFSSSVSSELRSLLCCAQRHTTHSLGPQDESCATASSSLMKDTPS

By IC50 is commonly meant the point on the concentration scale where inhibition reaches its midpoint. With `Cc1ccsc1C(=O)Nc1ccc(C(=O)N2Cc3ccccc3-c3ccccc32)cc1` [Example 3, 3-Methyl-N-[4-[(5(6H)-phenanthridinyl)carbonyl]-phenyl]-2-thiophenecarboxamide], the figures for the IC50 in experiment [1] and in experiment [2] were 170 nM and 420 nM, respectively.

`Cc1ccccc1C(=O)Nc1ccc(C(=O)N2Cc3cc(Cl)ccc3Oc3ccccc32)cc1` [Example 4]: the IC50 in experiment [1] came to 1500 nM; in experiment [2], 1700 nM.

Regarding `Cc1ccccc1C(=O)Nc1ccc(C(=O)N2Cc3ccccc3CCc3ccccc32)cc1` [Example 6, N-[4-[(11,12-Dihydrodibenz[b,f]azocin-5-(6H)-yl)-carbonyl]phenyl]-2-methylbenzamide], the inhibition at 50 µM turned out to be 60% in experiment [1] (setting [3]) and 80% in experiment [2] (setting [4]).

Regarding `O=C(Nc1ccc(C(=O)N2Cc3ccccc3-c3ccccc32)cc1)c1c(Cl)cccc1Cl` [Example 7], the IC50 in experiment [1] turned out to be 630 nM; in experiment [2], 77 nM.

Regarding `O=C(Nc1ccc(C(=O)N2Cc3ccccc3-c3ccccc32)cc1)c1ccc(Cl)c(Cl)c1` [Example 8, 3.4-Dichloro-N-[4-[(5(6H)-phenanthridinyl)carbonyl]phenyl]benzamide], the figures for the IC50 in experiment [1] and in experiment [2] were 2800 nM and 1500 nM, respectively.

Turning to `O=C(Nc1ccc(C(=O)N2Cc3ccccc3Cc3ccccc32)cc1)c1cc(Cl)ccc1Cl` [Example 9, N-[4-[(6,11-Dihydro-5H-dibenz[b,e]azepin-5-yl)carbonyl]phenyl]-2,5-dichlorobenzamide], the IC50 worked out at 1100 nM in experiment [1] and 280 nM in experiment [2].

Turning to `Cc1ccc(C)c(C(=O)Nc2ccc(C(=O)N3Cc4ccccc4Cc4ccccc43)cc2)c1` [Example 12, N-[4-[(6,11-Dihydro-5H-dibenz[b,e]azepin-5-yl)carbonyl]phenyl]-2,5-dimethylbenzamide], the IC50 in experiment [1] stood at 390 nM; in experiment [2], 180 nM.

For `Cc1ccc(C(=O)Nc2ccc(C(=O)N3Cc4ccccc4Cc4ccccc43)cc2)c(C)c1` [Example 13, N-[4-[(6,11-Dihydro-5H-dibenz[b,e]azepin-5-yl)carbonyl]phenyl]2,4-dimethylbenzamide], the IC50 in experiment [1] was 340 nM; in experiment [2], 300 nM.

Turning to `O=C(Nc1ccc(C(=O)N2Cc3ccccc3Cc3ccccc32)cc1)c1cccnc1` [Example 17, N-[4-[(6,11-Dihydro-5H-dibenz[b,e]azepin-5-yl)-carbonyl]phenyl]-3-pyridinecarboxamide], the inhibition at 50 µM is 65% in experiment [1] (setting [3]) and 52% in experiment [2] (setting [4]).

As to `Cc1ccsc1C(=O)Nc1ccc(C(=O)N2Cc3ccccc3Cc3ccccc32)cc1` [Example 18, N-[4-[(6,11-Dihydro-5H-dibenz[b,e]azepin-5-yl)carbonyl]phenyl]-3-methyl-2-thiophenecarboxamide], the IC50 in experiment [1] amounted to 84 nM; in experiment [2], 520 nM.

On to `O=C(Nc1ccc(C(=O)N2Cc3ccccc3Cc3ccccc32)cc1)c1cccc(C(F)(F)F)c1` [Example 19, N-[4-[(6,11-Dihydro-5H-dibenz[b,e]azepine-5-yl)carbonyl]phenyl]-3-(trifluoromethyl)benzamide], for which the IC50 in experiment [1] was 1300 nM; in experiment [2] it was 1200 nM.

In the case of `O=C(Nc1ccc(C(=O)N2Cc3ccccc3Cc3ccccc32)cc1)c1ccc(C(F)(F)F)cc1` [Example 20, N-[4-[(6,11-Dihydro-5H-dibenz[b,e]azepin-5-yl)carbonyl]phenyl]-4-(trifluoromethyl)benzamide], the inhibition at 10 µM in experiment [1] (2 h, 10 μM, rat hepatic, read-out: V1, % at concentration in brackets) was 17%; in experiment [2] (10 μM, rat kidney, read-out: V2, % at concentration in brackets) it was 48%.

Turning to `O=C(Nc1ccc(C(=O)N2Cc3ccccc3Cc3ccccc32)cc1)c1ccc(F)cc1F` [Example 21, N-[4-[(6,11-Dihydro-5H-dibenz[b,e]azepin-5-yl)carbonyl]phenyl]-2,4-difluorobenzamide], the IC50 is 280 nM in experiment [1] and 440 nM in experiment [2].

As for `Cc1ccccc1C(=O)Nc1ccc(C(=O)N2Cc3cc(S(=O)(=O)N(C)C)ccc3Oc3ccccc32)cc1` [Example 23, N-[4-[[2-[(Dimethylamino)sulfonyl]dibenz[b,f][1,4]oxazepin-10(11H)-yl]carbonyl]phenyl]-2-methylbenzamide], the figures for the inhibition at 50 µM in experiment [1] (setting [3]) and in experiment [2] (setting [4]) were 19% and 47%, respectively.

As for `O=C(Nc1ccc(C(=O)N2Cc3ccccc3Cc3ccccc32)cc1)c1ccccc1` [Example 24, N-[4-[(6,11-Dihydro-5H-dibenz[b,e]azepin-5-yl)carbonyl]phenyl]benzamide], the IC50 was determined as 170 nM in experiment [1] and 410 nM in experiment [2].

As to `O=C(Nc1ccc(C(=O)N2Cc3ccccc3Cc3ccccc32)cc1)c1ccccc1OC(F)(F)F` [Example 25, N-[4-[(6,11-Dihydro-5H-dibenz[b,e]azepin-5-yl)carbonyl]phenyl]-2-(trifluoromethoxy)benzamide], the results for the IC50 in experiment [1] and in experiment [2] were 52 nM and 560 nM, respectively.

For `Cc1occc1C(=O)Nc1ccc(C(=O)N2Cc3ccccc3Cc3ccccc32)cc1` [Example 119], the IC50 was 39 nM in experiment [1] and 1100 nM in experiment [2].

Turning to `COc1cc(Cl)ccc1C(=O)Nc1ccc(C(=O)N2Cc3ccccc3Cc3ccccc32)cc1` [Example 165, N-[4-[(6,11-Dihydro-5H-dibenz[b,e]azepin-5-yl)carbonyl]phenyl]-2-methoxy-4-chlorobenzamide], the IC50 in experiment [1] is 490 nM; in experiment [2] it was 370 nM.

As to `O=C(Nc1ccc(C(=O)N2Cc3ccccc3Cc3ccccc32)cc1)c1ccccc1C(F)(F)F` [Example 166, N-[4-[(6,11-Dihydro-5H-dibenz(b,e]azepin-5-yl)carbonyl]phenyl]-2-trifluoromethylbenzamide], the IC50 came out at 83 nM in experiment [1] and 245 nM in experiment [2].

On to `O=C(Nc1ccc(C(=O)N2Cc3ccccc3Sc3ccccc32)cc1)c1ccc(Cl)cc1Cl` [Example 449, N-[4-[(Dibenz[b,f][1,4]thiazepin-10(11H)-yl)-carbonyl]phenyl]-2 4-dichlorobenzamide], for which, in the experiment on vasopressin V1, the “MAX % Inhibition” value amounted to 45% and the “Time of max % inhibition” value is 90 min. Also, the IC50 in experiment [1] came to 360 nM. The compound further yielded an IC50 in experiment [2] of 250 nM.
